Experimental data as given in patent publication US20260001914A1, “MACROCYCLIC PEPTIDES TARGETING KRAS” (Merck Sharp & Dohme LLC, priority 2022, published 2026).
*1 amine or outer side, *2 acyl side, *3 side chain or, on linkers, in order; H or OH if unused. Where a SMILES comes first, the peptide text is derived from it. Bridges are numbered along the chain shown (N, C = ends). [ ]: non-standard residue; d: D form. The star is where a group is joined. cBu(1-CO,cis-3-CH2NH) = O=C([C@H]1C[C@@H](CN[*:1])C1)[*:2]; NMeNva(5-imidazol-1-yl) = CN[C@@H](CCCn1ccnc1)C(=O)O; Phe(4-guanidino) = N=C(N)Nc1ccc(C[C@H](N)C(=O)O)cc1; X22 = CNC(=N)N(C)CCC[C@@H](C(=O)[*:2])N(C)[*:1]; Ala(pyrimidin-5-yl) = N[C@@H](Cc1cncnc1)C(=O)O; Ala(thiazol-2-yl) = N[C@@H](Cc1nccs1)C(=O)O; Phe(4-CH2NH2) = NCc1ccc(C[C@H](N)C(=O)O)cc1; X3 = CN([C@@H](Cc1cncnc1)C(=O)[*:2])[*:1]; Leu(4,5-dehydro) = C=C(C)C[C@H](N)C(=O)O; X24 = O=C([C@H](Cc1ccncc1Cl)N[*:1])[*:2]; Ethyl(2-pyrrolidin-1-yl) = C1CCN(CC*)C1; Lys(N3) = [N-]=[N+]=NCCCC[C@H](N)C(=O)O; Nle(5,5-F2) = CC(F)(F)CC[C@H](N)C(=O)O; Phe(3-F) = N[C@@H](Cc1cccc(F)c1)C(=O)O; Phe(4-F) = N[C@@H](Cc1ccc(F)cc1)C(=O)O; 1Nal = N[C@@H](Cc1cccc2ccccc12)C(=O)O; NHCH2CH2SCH2CO = O=C(CSCCN[*:1])[*:2]; Phe(2-F) = N[C@@H](Cc1ccccc1F)C(=O)O; Abu(4,4-F2) = N[C@@H](CC(F)F)C(=O)O; NMe3Pal = CN[C@@H](Cc1cccnc1)C(=O)O; X1 = O=C(C12CC(CN[*:1])(C1)C2)[*:2]; NMeLys(Me) = CNCCCC[C@H](NC)C(=O)O; X17 = O=C([C@H](CCCCF)N[*:1])[*:2]; Ala(cPr) = N[C@@H](CC1CC1)C(=O)O; NMeF = CN[C@@H](Cc1ccccc1)C(=O)O; PhLac = O=C(O)[C@@H](O)Cc1ccccc1; hIle = CC[C@H](C)C[C@H](N)C(=O)O; 3Pal = N[C@@H](Cc1cccnc1)C(=O)O; 4Pal = N[C@@H](Cc1ccncc1)C(=O)O; d3Pal = N[C@H](Cc1cccnc1)C(=O)O; d(αMeC) = C[C@@](N)(CS)C(=O)O; Ahp(2) = CCCCC[C@H](N)C(=O)O; Cba = N[C@@H](CC1CCC1)C(=O)O; hLeu = CC(C)CC[C@H](N)C(=O)O; αMeC = C[C@](N)(CS)C(=O)O; NMeA = CN[C@@H](C)C(=O)O; Nle = CCCC[C@H](N)C(=O)O; Nva = CCC[C@H](N)C(=O)O

Biological target: KRAS-G12D protein (Homo sapiens, UniProt P01116, G12D)
Experiment: SOS-mediated nucleotide exchange assay (BODIPY-GDP / Tb-streptavidin TR-FRET)
Type: biochemical

Sequence of KRAS-G12D protein (P01116 1-188 isoform P01116-2 G12D): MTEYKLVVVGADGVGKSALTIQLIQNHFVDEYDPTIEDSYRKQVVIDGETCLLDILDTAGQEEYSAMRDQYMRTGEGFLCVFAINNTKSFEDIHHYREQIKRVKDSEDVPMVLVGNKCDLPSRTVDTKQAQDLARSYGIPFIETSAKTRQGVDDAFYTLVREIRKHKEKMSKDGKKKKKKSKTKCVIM

| Compound | EC50 |
| --- | --- |
| CCCC[C@@H]1NC(=O)[C@H](Cc2cccnc2)NC(=O)[C@H](C)N(C)C(=O)[C@H](Cc2ccccc2)OC(=O)C23CC(CNC(=O)[C@H](Cc4cncnc4)N(C)C(=O)[C@H](CCCC)NC(=O)[C@H](Cc4ccccc4F)NC1=O)(C2)C3 [compound 401, cyclo(FLac-NMeA-3Pal-Nle-Phe2F-Nle-NMeAlaPyrim-amBCP)] (cyclo([3Pal][Nle][Phe(2-F)][Nle][X3][X1][PhLac][NMeA])) | 29 nM |
| CC(C)CC[C@@H]1NC(=O)[C@H](Cc2ccncc2Cl)NC(=O)[C@H](CC2CC2)NC(=O)[C@H](Cc2cncnc2)NC(=O)[C@H](C)N(C)C(=O)[C@H](Cc2ccccc2)OC(=O)C23CC(CNC(=O)[C@H](Cc4ccccc4)N(C)C1=O)(C2)C3 [compound 298, cyclo(FLac-NMeA-PyrimAla-cPrA-4Pal2Cl-hL-NMeF-amBCP)] (cyclo([Ala(cPr)][X24][hLeu][NMeF][X1][PhLac][NMeA][Ala(pyrimidin-5-yl)])) | 11 nM |
| CCCCC[C@@H]1NC(=O)[C@H](Cc2ccc(OC)cc2)NC(=O)[C@H](CC2CCC2)NC(=O)[C@H](Cc2ccc(OCCN3CCCC3)cc2)NC(=O)[C@H](CCCNC(=N)N)NC(=O)[C@H](Cc2ccccc2)NC(=O)CSC[C@@](C)(C(N)=O)NC(=O)[C@H](Cc2ccccc2)N(C)C1=O [compound 383, cyclo(F-R-TyrOEtPyr-cBuA-TyrOMe-Ahp-NMeF-aMeCl-ClAc)] ({CH2CO}-FRY(Ethyl(2-pyrrolidin-1-yl))[Cba]Y(Me)[Ahp(2)][NMeF][αMeC]-NH2; thioether N-8) | 9.79 nM |
| CCCC[C@@H]1NC(=O)[C@H](Cc2cccnc2)NC(=O)[C@H](CCCn2ccnc2)N(C)C(=O)[C@H](Cc2ccccc2)N(C)C(=O)[C@H]2C[C@@H](CNC(=O)[C@H](Cc3cccnc3)N(C)C(=O)[C@H](CCCCN=[N+]=[N-])NC(=O)[C@H](Cc3ccccc3F)NC1=O)C2 [compound 157, cyclo(NMeF-NMeNvalmid-3Pal-Nle-Phe2F-LysN3-NMe3Pal-c3amCblc)] (cyclo([3Pal][Nle][Phe(2-F)][Lys(N3)][NMe3Pal][cBu(1-CO,cis-3-CH2NH)][NMeF][NMeNva(5-imidazol-1-yl)])) | 7760 nM |
| CCCC[C@@H]1NC(=O)[C@H](Cc2nccs2)NC(=O)[C@H](C)N(C)C(=O)[C@H](Cc2ccccc2)OC(=O)C23CC(CNC(=O)[C@H](Cc4ccccc4)N(C)C(=O)[C@H](CCCC)NC(=O)[C@H](Cc4ccccc4F)NC1=O)(C2)C3 [compound 320, cyclo(FLac-NMeA-2TzA-Nle-Phe2F-Nle-NMeF-amBCP)] (cyclo([NMeA][Ala(thiazol-2-yl)][Nle][Phe(2-F)][Nle][NMeF][X1][PhLac])) | 4360 nM |
| C[C@H]1C(=O)N[C@@H](Cc2cncnc2)C(=O)N[C@@H](CC2CC2)C(=O)N[C@@H](Cc2ccccc2F)C(=O)N[C@@H](CCC(C)(F)F)C(=O)N(C)[C@@H](Cc2ccccc2)C(=O)NCC23CC(C2)(C3)C(=O)O[C@@H](Cc2ccccc2)C(=O)N1C [compound 276, cyclo(FLac-NMeA-PyrimAla-cPrA-Phe2F-Nle3F2-NMeF-amBCP)] (cyclo([Ala(cPr)][Phe(2-F)][Nle(5,5-F2)][NMeF][X1][PhLac][NMeA][Ala(pyrimidin-5-yl)])) | 1 nM |
| C=C(C)C[C@@H]1NC(=O)[C@H](CCCC)NC(=O)[C@H](Cc2cccnc2)NC(=O)[C@H](CCCNC(=N)N)NC(=O)[C@H](Cc2ccccc2)NC(=O)CSC[C@@](C)(C(N)=O)NC(=O)[C@H](Cc2cccnc2)N(C)C(=O)[C@H](CCCC)NC1=O [compound 44, cyclo(F-R-3Pal-Nle-deHLeu-Nle-NMe3Pal-aMeCl-ClAc)] ({CH2CO}-FR[3Pal][Nle][Leu(4,5-dehydro)][Nle][NMe3Pal][αMeC]-NH2; thioether N-8) | 526 nM |
| CCCC[C@@H]1NC(=O)[C@H](Cc2ccc(O)cc2)NC(=O)[C@H](CC(C)C)NC(=O)[C@H](Cc2ccc(O)cc2)NC(=O)[C@H](CCCNC(=N)N)NC(=O)[C@H](Cc2ccc(F)cc2)NC(=O)CSCCNC(=O)[C@H](Cc2ccccc2)N(C)C1=O [compound 75, cyclo(Phe4F-R-Y-L-Y-Nle-NMeF-Cysteamine-ClAc)] (cyclo(LY[Nle][NMeF][NHCH2CH2SCH2CO][Phe(4-F)]RY)) | 2510 nM |
| CC(C)CC[C@@H]1NC(=O)[C@H](Cc2cccc(F)c2)NC(=O)[C@H](CC2CCC2)NC(=O)[C@H](Cc2cncnc2)NC(=O)[C@H](C)N(C)C(=O)[C@H](Cc2ccccc2)OC(=O)C23CC(CNC(=O)[C@H](Cc4ccccc4)N(C)C1=O)(C2)C3 [compound 303, cyclo(FLac-NMeA-PyrimAla-cBuA-Phe3F-hL-NMeF-amBCP)] (cyclo([Cba][Phe(3-F)][hLeu][NMeF][X1][PhLac][NMeA][Ala(pyrimidin-5-yl)])) | 60.9 nM |
| CCC[C@@H]1NC(=O)[C@H](Cc2ccc(OC)cc2)NC(=O)[C@H](C[C@@H](C)CC)NC(=O)[C@H](Cc2ccncc2)NC(=O)[C@H](CCCNC(=N)N)NC(=O)[C@H](Cc2ccc(F)cc2)NC(=O)CSC[C@H](C(=O)O)NC(=O)[C@H](Cc2ccccc2)N(C)C1=O [compound 62, cyclo(Phe4F-R-4Pal-hlle-TyrOMe-Nva-NMeF-dC-ClAc)] ({CH2CO}-[Phe(4-F)]R[4Pal][hIle]Y(Me)[Nva][NMeF][dC]-OH; thioether N-8) | 2060 nM |
| CCCCC[C@@H]1NC(=O)[C@H](Cc2ccc(OC)cc2)NC(=O)[C@H](CC2CCC2)NC(=O)[C@H](Cc2ccc(NC(=N)N)cc2)NC(=O)[C@H](CCCCNC)N(C)C(=O)[C@H](Cc2ccccc2)NC(=O)CSC[C@@](C)(C(N)=O)NC(=O)[C@H](Cc2ccccc2)N(C)C1=O [compound 360, cyclo(F-NMeLysMe-Phe4Gn-cBuA-TyrOMe-Ahp-NMeF-aMeCl-ClAc)] ({CH2CO}-F[NMeLys(Me)][Phe(4-guanidino)][Cba]Y(Me)[Ahp(2)][NMeF][αMeC]-NH2; thioether N-8) | 291 nM |
| C[C@H]1C(=O)N[C@@H](Cc2cncnc2)C(=O)N[C@@H](CCCCF)C(=O)N[C@@H](Cc2ccccc2F)C(=O)N[C@@H](CCCCF)C(=O)N(C)[C@@H](Cc2ccccc2)C(=O)NCC23CC(C2)(C3)C(=O)O[C@@H](Cc2ccccc2)C(=O)N1C [compound 128, cyclo(FLac-NMeA-PyrimAla-NleF-Phe2F-NleF-NMeF-amBCP)] (cyclo([NMeA][Ala(pyrimidin-5-yl)][X17][Phe(2-F)][X17][NMeF][X1][PhLac])) | 37.4 nM |
| CCCC[C@@H]1NC(=O)[C@H](Cc2ccc(NC(=N)N)cc2)NC(=O)[C@H](CCCN(C)C(=N)NC)N(C)C(=O)[C@H](Cc2ccccc2)NC(=O)[C@H]2C[C@@H](CNC(=O)[C@H](Cc3ccccc3)N(C)C(=O)[C@H](CCCC)NC(=O)[C@H](Cc3ccc(OC)cc3)NC1=O)C2 [compound 384, cyclo(F-NMeArg1MeMe-Phe4Gn-Nle-TyrOMe-Nle-NMeF-c3amCblc)] (cyclo(F[X22][Phe(4-guanidino)][Nle]Y(Me)[Nle][NMeF][cBu(1-CO,cis-3-CH2NH)])) | 181 nM |
| CCCC[C@@H]1NC(=O)[C@H](Cc2ccccc2F)NC(=O)[C@H](CC2CCC2)NC(=O)[C@@H](Cc2cccnc2)NC(=O)[C@H](CCCNC(=N)N)NC(=O)[C@H](Cc2ccccc2)NC(=O)C23CC(CNC(=O)[C@H](Cc4cccnc4)N(C)C1=O)(C2)C3 [compound 103, cyclo(F-R-d3Pal-cBuA-Phe2F-Nle-NMe3Pal-amBCP)] (cyclo(FR[d3Pal][Cba][Phe(2-F)][Nle][NMe3Pal][X1])) | 3.19 nM |
| C[C@H]1C(=O)N[C@@H](Cc2cncnc2)C(=O)N[C@@H](CC2CC2)C(=O)N[C@@H](Cc2ccccc2F)C(=O)N[C@@H](CC(F)F)C(=O)N(C)[C@@H](Cc2ccccc2)C(=O)NCC23CC(C2)(C3)C(=O)O[C@@H](Cc2ccccc2)C(=O)N1C [compound 271, cyclo(FLac-NMeA-PyrimAla-cPrA-Phe2F-AbuF2-NMeF-amBCP)] (cyclo([Ala(cPr)][Phe(2-F)][Abu(4,4-F2)][NMeF][X1][PhLac][NMeA][Ala(pyrimidin-5-yl)])) | 730 nM |
| CCCCC[C@@H]1NC(=O)[C@H](Cc2ccc(OC)cc2)NC(=O)[C@H](CC2CCC2)NC(=O)[C@H](Cc2cccnc2)NC(=O)[C@H](CCCNC(=N)N)NC(=O)[C@H](Cc2ccccc2)OC(=O)C23CC(CNC(=O)[C@H](Cc4ccccc4)N(C)C1=O)(C2)C3 [compound 211, cyclo(FLac-R-3Pal-cBuA-TyrOMe-Ahp-NMeF-amBCP)] (cyclo([PhLac]R[3Pal][Cba]Y(Me)[Ahp(2)][NMeF][X1])) | 10.8 nM |
| CCCC[C@@H]1NC(=O)[C@H](Cc2ccccc2)NC(=O)[C@H](C)N(C)C(=O)[C@H](Cc2ccccc2)OC(=O)C23CC(CNC(=O)[C@H](Cc4ccccc4)N(C)C(=O)[C@H](CCCC)NC(=O)[C@H](Cc4ccccc4F)NC1=O)(C2)C3 [compound 305, cyclo(FLac-NMeA-F-Nle-Phe2F-Nle-NMeF-amBCP)] (cyclo(F[Nle][Phe(2-F)][Nle][NMeF][X1][PhLac][NMeA])) | 1790 nM |
| CCCCC[C@@H]1NC(=O)[C@H](Cc2ccc(OC)cc2)NC(=O)[C@H](CC2CCC2)NC(=O)[C@H](Cc2cccnc2)NC(=O)[C@H](CCCNC(=N)N)NC(=O)[C@H](Cc2ccccc2)NC(=O)CSC[C@@](C)(C(N)=O)NC(=O)[C@H](Cc2cncnc2)N(C)C1=O [compound 376, cyclo(F-R-3Pal-cBuA-TyrOMe-Ahp-NMeAlaPyrim-aMeCl-ClAc)] ({CH2CO}-FR[3Pal][Cba]Y(Me)[Ahp(2)][X3][αMeC]-NH2; thioether N-8) | 26.6 nM |
| CCCCC[C@@H]1NC(=O)[C@H](Cc2ccc(O)cc2)NC(=O)[C@H](CC(C)C)NC(=O)[C@H](Cc2ccc(O)cc2)NC(=O)[C@H](CCCNC(=N)N)NC(=O)[C@H](Cc2ccccc2)NC(=O)CSC[C@H](C(N)=O)NC(=O)[C@H](Cc2ccccc2)N(C)C1=O [compound 3, cyclo(F-R-Y-L-Y-Ahp-NMeF-dCl-ClAc)] | 966 nM |
| CCCC[C@@H]1NC(=O)[C@H](Cc2ccc(CN)cc2)NC(=O)[C@H](CCCNC(=N)N)NC(=O)[C@H](Cc2cccc3ccccc23)NC(=O)CSC[C@](C)(C(=O)O)NC(=O)[C@H](Cc2ccccc2)N(C)C(=O)[C@H](CCCC)NC(=O)[C@H](Cc2ccc(O)cc2)NC1=O [compound 144, cyclo(1Nal-R-Phe4CH2NH2-Nle-Y-Nle-NMeF-daMeC-ClAc)] ({CH2CO}-[1Nal]R[Phe(4-CH2NH2)][Nle]Y[Nle][NMeF][d(αMeC)]-OH; thioether N-8) | 1460 nM |
